In brackets after ≈: the same amount, converted by molar mass.
Experiment: physchem
Conditions: water, thermodynamic from solid
Protocol: The excess solid was separated off by subsequently centrifuging the solutions twice at 15 000 rpm (20 minutes in each case), producing in all instances a clear, saturated solution of active substance. Subsequently the amount of the guest molecules complexed was determined by means of UV-VIS spectra, the reference sample used in each case being the respective aqueous polymer solution with the same concentration and the same preparation (likewise centrifuged). […] For all of the solubilization experiments evaluated in this way, the measurement error was ±5%.

COCCOC(=O)C1=C(C)NC(C)=C(C(=O)OC(C)C)C1c1cccc([N+](=O)[O-])c1 (stereo not drawn) [nimodipine, 1,4-dihydro-2,6-dimethyl-4-(3′-nitrophenyl)pyridine 3-β-methoxyethyl ester 5-isopropyl ester]
solubility at 18 h: 1.1 µg/mL (≈ 2.63 µM)
